Patent US6723897B2, “Methods for controlling gibberellin levels” (Monsanto Technology, LLC, priority 1998, dated 2004)

Key:
Assay type in all cases: in vivo, Glycine max
[1] = system: transgenic line 719 soybean; experiment: Field trial of seed coatings under soil compaction / different soils, GA-deficient soybean; conditions: for Count (emergence) / Dwarfs (number of dwarfs not rescued) / Dwarfs (number not rescued): Line 719
[2] = system: non-transgenic soybean line A4922; experiment: Field trial of seed coatings under soil compaction / different soils, wild-type soybean; conditions: for Count (emergence) / Height (total plant height): A4922
Procedure: The second trial (data reported in Tables 22-24) tested the precursors under conditions of soil compaction.
As noted above, the second trial tested the noted precursors under conditions of soil compaction. These experiments are performed in the same manner as in the first trial, except that the soil is compacted with an all-terrain vehicle.
“Height” equals total plant height in cm.

[3] = system: AX5/antisense CPScc soybean line 234 (R3); experiment: Hilum seed treatment of epicotyl-intensive GA-deficient soybean, height (FIG. 43); conditions: 10 DAP
Procedure: The purpose of this study is to evaluate the ability of four GA compounds, i.e., GA9, GA5, GA3-3-acetate, and GA12, to restore normal growth in AX5/antisense CPScc soybean lines when applied as a seed treatment.
Line 46 plants are R2; Line 234 plants are R3.
The GA compounds are dissolved in ethanol and applied to the hilum of dry seeds as not more than 10 μl droplets with a syringe. If multiple applications are made to seeds, the previous application is allowed to dry before a subsequent application is made.
Seeds are sown 1 inch deep in commercial potting soil (Metromix 200) in 4-inch plastic pots and placed in a greenhouse set for 12 hours artificial light and a temperature regime of 85° F. (29° C.) day and 75° F. night (24° C.). Pots are watered as necessary by overhead hand watering. Hypocotyl and epicotyl measurements are made for each plant at various stages of plant growth.
The lower dashed horizontal line represents the total height of untreated AX5 line 234 soybeans. The upper dashed horizontal line represents the total height of untreated wild-type A4922 soybeans. Measurements are made 10 days after planting.

[4] = Heavy soil - Loose, target rate 0.5 μg/seed, Table 23
[5] = Heavy soil - Loose, target rate 2.0 μg/seed, Table 23
[6] = Heavy soil - Loose, target rate 4.0 μg/seed, Table 23
[7] = Heavy soil - compacted, target rate 0.5 μg/seed, Table 23
[8] = Heavy soil - compacted, target rate 2.0 μg/seed, Table 23
[9] = Heavy soil - compacted, target rate 4.0 μg/seed, Table 23
[10] = Heavy soil - loose, target rate 0.5 μg/seed, Table 22
[11] = Heavy soil - loose, target rate 2.0 μg/seed, Table 22
[12] = Light soil - Compacted, target rate 0.5 μg/seed, Table 22
[13] = Light soil - Compacted, target rate 2.0 μg/seed, Table 22
[14] = Light soil - Loose, target rate 0.5 μg/seed, Table 24
[15] = Light soil - Loose, target rate 2.0 μg/seed, Table 24
[16] = Light soil - Loose, target rate 4.0 μg/seed, Table 24
[17] = Light soil - compacted, target rate 0.5 μg/seed, Table 24
[18] = Light soil - compacted, target rate 2.0 μg/seed, Table 24
[19] = Light soil - compacted, target rate 4.0 μg/seed, Table 24

SMILES: C=C1C[C@]23C[C@@]1(O)CC[C@H]2[C@@]12C=C[C@H](OC(C)=O)[C@@](C)(C(=O)O1)[C@H]2[C@@H]3C(=O)O [GA3-3-acetate]
- Count (emergence) [1, 4]: 31.3 bcd
- Dwarfs (number of dwarfs not rescued) [1, 4]: 0.3 de
- Count (emergence) [1, 5]: 27.3 cd
- Dwarfs (number of dwarfs not rescued) [1, 5]: 0 e
- Count (emergence) [1, 6]: 18.3 ef
- Dwarfs (number of dwarfs not rescued) [1, 6]: 0 e
- Count (emergence) [1, 7]: 10.3 c-f
- Dwarfs (number of dwarfs not rescued) [1, 7]: 0.3 cd
- Count (emergence) [1, 8]: 7.3 efg
- Dwarfs (number of dwarfs not rescued) [1, 8]: 0 days
- Count (emergence) [1, 9]: 2.0 g
- Dwarfs (number of dwarfs not rescued) [1, 9]: 0 days
- Count (emergence) [1, 10]: 31 bcd
- Dwarfs (number of dwarfs not rescued) [1, 10]: 3.3 c
- Count (emergence) [1, 11]: 27 cd
- Dwarfs (number of dwarfs not rescued) [1, 11]: 0.3 de
- Count (emergence) [1, 12]: 25 def
- Dwarfs (number of dwarfs not rescued) [1, 12]: 0 days
- Count (emergence) [1, 13]: 22 efg
- Dwarfs (number of dwarfs not rescued) [1, 13]: 0 days
- Count (emergence) [1, 14]: 45.3 ab
- Dwarfs (number not rescued) [1, 14]: 0.3 e
- Count (emergence) [1, 15]: 43.3 ab
- Dwarfs (number not rescued) [1, 15]: 0 c
- Count (emergence) [1, 16]: 42.7 ab
- Dwarfs (number not rescued) [1, 16]: 0 c
- Count (emergence) [1, 17]: 25.3 def
- Dwarfs (number not rescued) [1, 17]: 0
- Count (emergence) [1, 18]: 22.0 efg
- Dwarfs (number not rescued) [1, 18]: 0
- Count (emergence) [1, 19]: 33.7 a-e
- Dwarfs (number not rescued) [1, 19]: 0
- rank of potential for rescuing GA-deficient dwarf soybeans without decreasing emergence ([1]; based on the last two field trials): GA9>GA5>GA3-3-acetate>GA3>GA12
- best to least selectivity order ([1]; emergence under soil compaction, margin of selectivity, rescue without overelongation, Table 22): GA9>GA5>GA3-3-acetate>GA3
- Count (emergence) [2, 4]: 29.0 a-d
- Height (total plant height) [2, 4]: 5.3 g·cm·days
- Count (emergence) [2, 5]: 15.3 f
- Height (total plant height) [2, 5]: 6.0 c-f cm
- Count (emergence) [2, 6]: 7
- Height (total plant height) [2, 6]: 8.0 ab cm
- Count (emergence) [2, 7]: 4.0 de
- Height (total plant height) [2, 7]: 5.3 b-e cm
- Count (emergence) [2, 8]: 6.0 cde
- Height (total plant height) [2, 8]: 5.7 bcd cm
- Count (emergence) [2, 9]: 0 e
- Count (emergence) [2, 10]: 29 a-d
- Height (total plant height) [2, 10]: 5.3 g·cm·days
- Count (emergence) [2, 11]: 15 f
- Height (total plant height) [2, 11]: 6.0 c-f cm
- Count (emergence) [2, 12]: 28 bcd
- Height (total plant height) [2, 12]: 6.3 cm·days
- Count (emergence) [2, 13]: 18 def
- Height (total plant height) [2, 13]: 8.7 c cm
- Count (emergence) [2, 14]: 44.3 abc
- Height (total plant height) [2, 14]: 6.3 f cm
- Count (emergence) [2, 15]: 42.0 abc
- Height (total plant height) [2, 15]: 9.7 bc cm
- Count (emergence) [2, 16]: 42.3 abc
- Height (total plant height) [2, 16]: 10.3 b cm
- Count (emergence) [2, 17]: 27.7 cd
- Height (total plant height) [2, 17]: 6.3 cm·days
- Count (emergence) [2, 18]: 18.0 def
- Height (total plant height) [2, 18]: 8.7 c cm
- Count (emergence) [2, 19]: 22.7 dc
- Height (total plant height) [2, 19]: 11.0 ab cm
- plant height dose/response in wild-type line A4922 (FIG. 40) ([2]; in vivo): dose/response curves similar to that of GA3
- restoration of height of line 234 soybeans ([3]; hypocotyl and epicotyl elongation, hypocotyl to epicotyl ratio not maintained): restore normal height to line 234 soybeans
- response of line 234 height ([3]; seed treatment rates between 0.1 and 1 μg/seed): generally similar response
